Assays:
Escherica coli = experiment: Ceramic tile disinfection with powdered hypochlorite; settings: tile treated with 2% NaOCl (positive control)
Klebsiella species = experiment: as above; settings: tile sprayed with 2% solution; contact time four minutes (positive control)
Staphococcus species = experiment: as above; settings: tile treated with 2% NaOCl (positive control)
contaminated slides = experiment: Continuous disinfection of contaminated slides by vapor emitter; assay type: cell-based; settings: 6000 ppm sodium hypochlorite at pH 9; contaminated slides exposed and evaluated every couple of days
Description: Another approach is increasing the pH of the bleach solution to reduce chlorine. See in the Examples Section below. An isobaric line for constant hypochlorous acid vapor pressure can be calculated from literature values of various equilibrium constants for various concentrations of sodium hypochlorite and pH. Thus, one can maintain the performance of a desired concentration of hypochlorous acid but eliminate chlorine by increasing pH and hypochlorite concentration according to the isobaric line. […] The higher bleach concentrations also allow for smaller volumes of solution since the volume of solution required to provide a certain number of moles of hypochlorous acid decreases as the concentration increases. […] This allows much longer product lifetimes for an emitter. […] In one embodiment, the sodium hypochlorite at about pH 9 is gelled using clay.

Dust mite allergen = settings: ELISA test after treatment for 1 hour; low concentration; cited from earlier work
[1] = Stability of thickened dilute hypochlorite at 120° F.; settings: compared with thickeners of Table XXIV

With `[Na+].[O-]Cl` [NaOCl, sodium hypochlorite] the “bacterial growth on agar plate” value (Escherica coli) was “no growth”, the “bacterial growth on agar plate” value (Klebsiella species) was “no bacterial growth” and the “bacterial growth on agar plate” value (Staphococcus species) was “no growth”. For the same compound, the “duration of continuous disinfection” value (contaminated slides) was “continuous disinfection for more than a month”.
For `OCl` [hypochlorite ions], the “reduction of dust mite allergen binding” value (Dust mite allergen) is given as “up to 82%”.
With `CCCCCCCCCCCCOS(=O)(=O)[O-].[Na+]` [sodium lauryl sulfate] the “stability of dilute hypochlorite with surfactant, by comparison” value [1] was “less stable than Vangel ES®”.
